# Test results as given in patent US6740666B2, “Substituted 8-arylquinoline phosphodiesterase-4 inhibitors” (Merck & Co., Inc., priority 2000, dated 2004).
# Experiment: Formation of metabolite in vivo after administration
# Conditions: Example 19 (a PDE4 inhibitor) formed when Example 14 is administered to a mammal
# Experimental: For example, Example 19, (5-{(E)-2-(3-{6-[1-methyl-1-(methylsulfonyl)ethyl]-8-quinolinyl}phenyl)-1-[4-(methylsulfonyl)phenyl]ethenyl}-1,2,4-oxadiazol-3-yl)methanol: [drawing 2]
# is administered. Accordingly, the present invention includes prodrugs that form PDE4 inhibitors in vivo as a metabolite after administering such prodrugs to a mammal. Further, this invention includes a method of treatment by a step of administering a prodrug to form in vivo an effective amount of a PDE4 inhibitor described by Formula I.
smiles,measurement,value
"Cc1noc(/C(=C/c2cccc(-c3cc(C(C)(C)S(C)(=O)=O)cc4cccnc34)c2)c2ccc(S(C)(=O)=O)cc2)n1 [Example 14, 6-[1-methyl-1-(methylsulfonyl)ethyl]-8-[3-[(E)-2-[3-methyl-1,2,4-oxadiazol-5-yl]-2-[4-(methylsulfonyl)phenyl]ethenyl]phenyl]quinoline]",metabolite formed in vivo,formed in vivo as a metabolite
